Test results taken from US20240150387A1, “GLUCOCEREBROSIDE COMPOUND, PHARMACEUTICAL COMPOSITION THEREOF AND USE THEREOF” (DONGGUAN HEC CORDYCEPS R&D CO., LTD., priority 2021, published 2024).

Tests used:
[1] = tested on: spleen lymphocytes induced by Con A; assay: Detection of cell proliferation inhibition: Con A-induced spleen lymphocyte proliferation (CCK-8); type: cell-based; details: Mus musculus; for inhibition at 2 µM: concentration 2 μM; for inhibition at 2 µM / inhibition at 4 µM / inhibition at 8 µM / inhibition at 16 µM / inhibition at 32 µM / inhibition at 64 µM: read-out: Inhibitory rate (%) on the proliferation of spleen lymphocytes induced by Con A; for inhibition at 4 µM: concentration 4 μM; for inhibition at 8 µM: concentration 8 μM; for inhibition at 16 µM: concentration 16 μM; for inhibition at 32 µM: concentration 32 μM; for inhibition at 64 µM: concentration 64 μM; for IC50: linear fit of inhibition rate against log concentration, ConA final 7.5 μg/mL, 48 h
Method: (§1) 3.2.1 Cell acquisition: BABL/C male mice ere sacrificed after eyeball extraction and bloodletting, soaked in 75% ethanol for 10 mint, and the spleen was aseptically removed in an ultra-clean workbench, and placed in a petri dish filled with PBS. A syringe was used to absorb PBS to rinse the surface and interior of the spleen until the spleen turned white, then the spleen was gently torn up with tweezers. The spleen was gently crushed with a 5 mL syringe on the steel mesh to make a single-cell suspension, which was filtered through a 200-mesh sieve. The filtrate was centrifuged for 10 min (1000 rpm/min); after centrifugation, the supertnatant was discarded. After the cell pellet was resuspended with PBS, the mixture was centrifuged again for 10 min (1000 rpm/min), and the operation was repeated once; 2 mL of erythrocyte lysate was added to the cell pellet. After the mixture was mixed evenly and allowed to stand for 5 min, 8 mL of PBS was added to nx evenly, and then the mixture was centrifuged at 1000 rpm min for 5 min. After centrifugation, the supernatant was discarded, the cell pellet was resuspended with PBS, then the mixture was centrifuged again for 10 min (1000 rpm/min), and the operation was repeated once; after centrifugation, the supematant ias discarded, the cell pellet was suspended in 1 mL of RPMI-1640 complete medium (containing 10% fetal bovine serum and 1% double antibody). 2-3 mL medium was added to dilute. A cell counter was used for cell counting (new cell type), and complete medium was used to adjust the cell concentration to 2*10^6 cells/mL.
(§2) 3.2.2 Stunple preparation: appropriate amount of compounds 1, 2, 3, and 4 were dissolved in DMSO respectively to prepare 64 mM mother solution, and then diluted with medium to obtain solutions with a concentration of 128 μM respectively, and then gradiently diluted with medium to obtain sample dilutions with concentrations of 64 μM, 32 μM, 16 μM, 8 μM, and 4 μM, respectively.
3.2.4 Detection of cell proliferation inhibition: the prepared cell suspension was added to the 96-well plate. The seeding cell density was 2*10^5 cells/well, and the added cell volume was 100 μL. Samples were added at 100 μL, with 5 replicate wells for each concentration, and then incubated in a 37° C., 5% CO2 incubator for 12 h. 10 μL of the supernatant were carefully suck out. 10 μL ConA with a concentration of 150 μg/mL (final concentration: 7.5 μg/mL) was added to the corresponding group, and then the mixture was incubated in a 37° C., 5% CO2 incubator for 48 h, and finally incubated in a 37° C. incubator for 4-5 hours with serum-free medium and 10% CCK-8. The absorbance (A) value of each well was detected at 450 nm by a microplate reader. A negative control group and a model control group were set up, which were cells+1640 medium, cells+ConA+1640 medium, respectively.
The proliferation inhibition rate of the sample to spleen lymphocytes was calculated according to the following formula:
Proliferation inhibition rate %=[(Am−As)/(Am−Ac)]×100% • Am: Absorbance of model control group (spleen lymphocytes+ConA+CCK-8) • As: Absorbance of sample group (spleen lymphocytes+samples to be tested+ConA+CCK-8) • Ac: Absorbance of negative control group (spleen lymphocytes+CCK-8)
The experimental results of compounds 1. 2, 3.

[2] = tested on: spleen lymphocytes; assay: Detection of cell viability (CCK-8) of spleen lymphocytes; type: cell-based, mouse; details: 64, 32, 16, 8, 4, and 2 μM; 60 h incubation; compared with the control group
Method: as §1, §2
3.2.3 Detection of cell viability: the prepared cell suspension was added to a 96-well plate. The seeding cell density was 2*10^5 cells/well, and the added cell volume was 100 μL. Compounds 1, 2, 3, and 4 were added at 100 μL/well, with 5 replicate wells for each concentration, and then incubated in a 37° C. 5% CO2 incubator for 60 h, and then incubated in a 37° C. incubator for 4-5 hours with serum-free medium and 10% CCK-8. The absorbance (A) value of each well was detected at 450 nm by a inicroplate reader. […]
3.2.5 Data processing: the proliferation rate (viability) of the sample to spleen hymphocytes was calculated according to the following formula:
Proliferation rate %=[As/Ac]×100% • As: Absorbance of sample group (spleen lymphocytes+samples to be tested+CCK-8) • Ac: Absorbance of control group (spleen lymphocytes+CCK-8)

For `CCCCCCCCCCC/C=C/[C@@H](O)C(=O)N[C@@H](CO[C@@H]1O[C@H](CO)[C@@H](O)[C@H](O)[C@H]1O)[C@H](O)/C=C/CC/C=C(\C)CCCCCCCCC` [Compound 2], which inhibition at 2 µM [1] is on record?
The inhibition at 2 µM was 43.7%.

What about the inhibition at 4 µM [1] of the same compound?
The inhibition at 4 µM was 54.3%.

What about the inhibition at 8 µM [1] of the same compound?
The inhibition at 8 µM was 77.7%.

What about the inhibition at 16 µM [1] of the same compound?
Its inhibition at 16 µM is 100%.

And the inhibition at 32 µM [1]?
Its inhibition at 32 µM is 126%.

And the inhibition at 64 µM [1]?
The inhibition at 64 µM was 140%.

And the IC50 [1]?
The IC50 was 10.4 µM.

And the “cytotoxic effect on spleen lymphocytes” value [2]?
The value was “no cytotoxic effect”.

What does the source list for `CCCCCCCCCCCCCCCC(=O)N[C@@H](CO[C@@H]1O[C@H](CO)[C@@H](O)[C@H](O)[C@H]1O)[C@H](O)/C=C/CC/C=C(\C)CCCCCCCCC` [Compound 4]?
inhibition at 2 µM [1]: 72.2%; inhibition at 4 µM [1]: 70.7%; inhibition at 8 µM [1]: 100%; inhibition at 16 µM [1]: 102%; inhibition at 32 µM [1]: 120%; inhibition at 64 µM [1]: 120%; IC50 [1]: 1.5 µM; cytotoxic effect on spleen lymphocytes [2]: no cytotoxic effect

Which results are given for `CCCCCCCCCCCCC/C=C/[C@@H](O)C(=O)N[C@@H](CO[C@@H]1O[C@H](CO)[C@@H](O)[C@H](O)[C@H]1O)[C@H](O)/C=C/CC/C=C(\C)CCCCCCCCC` [Compound 1]?
inhibition at 2 µM [1]: 130%; inhibition at 4 µM [1]: 136%; inhibition at 8 µM [1]: 146%; inhibition at 16 µM [1]: 150%; inhibition at 32 µM [1]: 148%; inhibition at 64 µM [1]: 152%; IC50 [1]: 4 µM; cytotoxic effect on spleen lymphocytes [2]: no cytotoxic effect

What does the source list for `CCCCCCCCC/C=C/CC/C=C/[C@@H](O)[C@H](CO[C@@H]1O[C@H](CO)[C@@H](O)[C@H](O)[C@H]1O)NC(=O)[C@H](O)/C=C/CCCCCCCCCCCC` [Compound 3]?
inhibition at 2 µM [1]: 4.5%; inhibition at 4 µM [1]: 30.9%; inhibition at 8 µM [1]: 37.4%; inhibition at 16 µM [1]: 52%; inhibition at 32 µM [1]: 84.2%; inhibition at 64 µM [1]: 123%; IC50 [1]: 19.5 µM; cytotoxic effect on spleen lymphocytes [2]: no cytotoxic effect
